Results on one compound are retold here after patent US20210275545A1, “METHOD OF TREATING CANCER PREFERABLY CHARACTERIZED BY EXPRESSION OF A FUSION PROTEIN COMPRISING A MEMBER OF THE E-TWENTY-SIX FAMILY BY ADMINISTERING AN AGENT THAT INHIBITS THE SYNTHESIS AND/OR ACTIVITY OF CORTISOL” (Yeda Research and Development Co. Ltd., priority 2018, published 2021).

Assay [1] concerns the target T1, GR and FLI1 (Homo sapiens, UniProt P04150). To be noted: combination of DEX (1 μM) and RU486 (1 μM). As to the method: (§1) (A) The scheme presents the full length Gaussia luciferase protein, along with either the amino-terminal segment (Gluc1), which was fused to an ETS family transcription factor, or the carboxyl terminal segment (Gluc2), which was fused to GR. Amino acid numbers are indicated. cDNAs encoding most members of the ETS family (16 members altogether) were cloned downstream to Gluc1. […] (B) HEK-293T cells (6×10^3) were seeded in 96-well plates. On the next day, cells were transfected with combinations of the Gluc1 plasmid, encoding a fused ETS family member, and the Gluc2 plasmid encoding a fused full-length GR. […] Cells were then lysed and luminescence was determined in biological triplicates. […] (D and E) HEK-293T cells were seeded in 100-mm dishes. Once they reached sub-maximal density (70%), cells were starved overnight for serum factors. […] Cell extracts were then processed for co-immunoprecipitation assays, in which the endogenous FLI1 or ERG protein was immunoprecipitated using a specific antibody, and immunoblotting was performed using an antibody against GR. EB, empty beads; C, solvent control. Images shown are representative of three biological replicates.
(A) HEK-293T cells (6×10^3) were seeded in 96-well plates. On the next day, the cells were transfected with combinations of the Gluc1 plasmid, encoding fused FLI1 or ERG, and the Gluc2 plasmid encoding GR. […] Cells were then lysed and luminescence was determined in each sample. Luminescence of vehicle-treated cells was used for normalization. […] (B) HEK-293T cells were seeded on coverslips in 6-well plates. […] Images were processed using the Zeiss ZEN2011 software. […] Bars, 20 μm.
(§2) Protein-fragment complementation assays (PCA): PCA was performed as previously described.

Another assay has as its target GR and ETV4 (Homo sapiens, UniProt P04150). To be noted: combination of DEX (1 μM) and RU486 (1 μM). The method, then: as §1, §2
Another assay has as its target GR and PU.1 (Homo sapiens, UniProt P04150). Conditions: combination of DEX (1 μM) and RU486 (1 μM). As to the method: as §1, §2
For assay [2], the target named is T1, GR and FLI1. To be noted: HEK-293T cells, treated for 60 minutes. The method, then: as §1
Proximity ligation assay (PLA), extraction of cells, co-immunoprecipitation and cell migration/invasion assays: These assays were performed exactly as recently reported.

For another assay, the system named is CHLA9 and RD-ES cells. The assay is described as follows: Transwell migration assay of ES cells. To be noted: DEX 1 μM, RU486 1 μM, D06 10 μM; 20 hours. It counts as cell-based.
In assay [3] the test system is CHLA9, A673 and RD-ES cells. Nature of the assay: MTT cell viability assay, three ES lines. It is filed as cell-based. To be noted: increasing concentrations, 24 hours. The method, then: FIGS. 12A-F: Inhibition of GR activity decreases growth and survival of Ewing's sarcoma cells. […] (B) Increasing concentrations of D06, a non-steroidal antagonist of GR [54], were incubated with A673 cells as in A and the MTT assay was performed in triplicates. *, p<0.05. […] Note that the abundance of the endogenous form of FLI1 is much weaker than that of EWS-FLI1. […] MTT assays were performed after 48 hours of treatment. The assay was repeated twice in quadruplets. **, p<0.01, ***, p<0.001. (E) A673 cells were seeded in 100-mm dishes. […] Shown are results of an apoptosis assay performed using an annexinV/7-AAD kit (BioLegend, Inc.). Quantification of the fractions of early and late apoptotic cells is shown in bar plots. The experiment was repeated twice. (F) The indicated ES cells were sparsely seeded in 6-well plates. […] Ten days later, cells were fixed and stained with crystal violet to visualize emerging colonies. Photos are shown along with bar plots showing the quantification of colonies in 5 non-overlapping microscope fields. The experiment was repeated twice. *, p≤0.05; **, p≤0.001.
According to recent reports, the EWS-FLI1 fusion promotes cell cycle progression and inhibits apoptosis. […] Next, siRNA specific to the FLI1 region of the fusion (FIG. 12C) were analyzed in A673 cells. […]
(In general: Tetrazolium assays rely on reduction of a dye to a coloured formazan, in cell work by metabolically active cells.)

The next assay concerns RD-ES tumors. Nature of the assay: Immunoblotting of RD-ES tumor extracts. It is filed as in vivo, SCID mice. The method, then:
FIGS. 13A-B: A GR antagonist and a cortisol-lowering drug induce markers of cell death in animal models of Ewing's sarcoma. (A) RD-ES tumors presented in FIG. 6A were extracted and analyzed using immunoblotting and the indicated antibodies. Note that tumors from three different mice per group were analyzed. (B) Whole extracts prepared from the tumors presented in FIG. 6D were analyzed using immunoblotting and the indicated antibodies. Note that tumors from three different mice per group were analyzed.
ES animal model studies: All animal experiments were approved by the Weizmann Institute's Animal Care and Use Committee. RD-ES cells and A673 cells (2.5×10^6) were inoculated subcutaneously in the right legs of female SCID mice (6 weeks old). Tumor growth was monitored once every 3 days using a caliper. […] Mice were euthanized when tumor size reached 800-900 mm^3. For metastasis assays, luciferase-labeled TC-71 cells (10^6) were injected orthotopically into the tibia of female SCID mice. Once the primary tumor reached the allowed size limit, we excised the lungs and examined metastases using luciferase bioluminescence imaging.
(In general: A western blot detects proteins with antibodies after separation by electrophoresis.)

Assay [4] has as its system glucocorticoid response element (GRE). To be noted: DEX and RU486 each at 100 nM, 24 hours.
Procedure: HEK-293T cells (1.2×10^4) were seeded in 48-well plates. […] In addition, cells were co-transfected with increasing amounts of a GR expression vector (A), a FLI1-encoding vector (B) or with a combination of both a FLI1 vector and a vector encoding GR, either wild type (C) or a mutant receptor (GRdim−, panel D). Luciferase activity was determined, in biological triplicates, 48 hours later and presented in bar plots. Cells that were pre-transfected with the reporter plasmid were used for normalization. *, p≤0.05; ***, p≤0.001. […] This was followed by cell lysis and determination of luciferase activity in biological triplicates.
Luciferase-reporter assays: Cells were co-transfected with a luciferase plasmid containing the consensus glucocorticoid response element (GRE) along with pGL3-Control (Promega, Madison, Wis.). Luciferase activity was determined using the dual-luciferase reporter assay system (Promega). Firefly luciferase luminescence values were normalized to Renilla luminescence.

T1 sequence (P04150 whole entry, the tested form may be a part): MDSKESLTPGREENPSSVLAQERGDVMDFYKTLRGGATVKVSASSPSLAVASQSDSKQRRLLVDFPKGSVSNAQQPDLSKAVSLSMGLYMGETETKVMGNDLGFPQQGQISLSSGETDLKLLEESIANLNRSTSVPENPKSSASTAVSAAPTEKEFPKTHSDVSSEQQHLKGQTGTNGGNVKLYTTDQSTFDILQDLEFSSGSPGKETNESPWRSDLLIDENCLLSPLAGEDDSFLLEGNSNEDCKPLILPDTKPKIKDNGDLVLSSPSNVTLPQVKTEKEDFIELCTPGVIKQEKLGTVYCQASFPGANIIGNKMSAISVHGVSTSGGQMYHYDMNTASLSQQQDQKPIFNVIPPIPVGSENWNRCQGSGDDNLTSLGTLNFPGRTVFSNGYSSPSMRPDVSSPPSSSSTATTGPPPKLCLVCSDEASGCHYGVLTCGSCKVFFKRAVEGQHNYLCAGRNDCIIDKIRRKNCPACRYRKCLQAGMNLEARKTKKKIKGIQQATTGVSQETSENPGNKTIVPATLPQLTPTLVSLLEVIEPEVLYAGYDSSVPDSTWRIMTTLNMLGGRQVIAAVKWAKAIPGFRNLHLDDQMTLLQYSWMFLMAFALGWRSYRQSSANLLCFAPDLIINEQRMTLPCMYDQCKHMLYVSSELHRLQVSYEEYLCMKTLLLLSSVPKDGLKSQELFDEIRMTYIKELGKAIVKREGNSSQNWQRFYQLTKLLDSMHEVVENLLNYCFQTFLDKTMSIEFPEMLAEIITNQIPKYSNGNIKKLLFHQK
Sequence of GR and ETV4 (P04150 whole entry): as the sequence (P04150 whole entry, the tested form may be a part) above
Sequence of GR and PU.1 (P04150 whole entry): as the sequence (P04150 whole entry, the tested form may be a part) above
Procedure for CHLA9 and RD-ES cells: (A) CHLA9 cells were seeded in 100-mm dishes. Once they reached sub-maximal density, cells were starved overnight for serum factors. […] Cells were then extracted and the lysates were processed for co-immunoprecipitation assays using an antibody against GR followed by immunobloting that used an antibody against EWS. The image shown is representative of 3 biological replicates. Signals were quantified and normalized (see numbers below each lane). EB, empty beads. […] (C-D) CHLA9 cells were seeded on the upper faces of either Transwell migration chambers or Matrigel-coated invasion chambers, and further incubated for 20 hours in full medium. Control siRNAs or siRNAs specific to either GR or EWS-FLI1 were added to cells 24 hours prior to seeding, and both cell migration and invasion were measured 20 hours later. […] Cells that reached the lower faces of the chambers were fixed and stained. Shown are representative images of stained cells. The bar plots show quantification, using ImageJ, of the area covered by cells. *, p≤0.05, **, p≤0.005. Bars, 500 μm. […] The bar plots show quantification, using ImageJ, of the area covered by cells. *, p≤0.05, **, p≤0.005. […]
(A) RD-ES cells were seeded in 100-mm dishes. […] Cell migration/invasion was determined 20 hours later.

With `CC#C[C@]1(O)CC[C@H]2[C@@H]3CCC4=CC(=O)CCC4=C3[C@@H](c3ccc(N(C)C)cc3)C[C@@]21C` [RU486, Mifepristone], the “effect on DEX-induced physical interaction between GR and FLI1 (PCA)” value on GR and FLI1 [1] was “significantly inhibited”. For the same compound, the “effect on DEX-induced physical interaction between GR and ETV4 (PCA)” value at GR and ETV4 was “only a trend was noted”. The “effect on DEX-induced physical interaction between GR and PU.1 (PCA)” value on GR and PU.1 was “significantly inhibited”. Moreover, at GR and FLI1 [2], the “co-immunoprecipitation of GR and FLI1” value is given as “strongly reduced”. For the same compound, in the assay with CHLA9 and RD-ES cells, the cell migration result is “inhibited”. For the same compound, in assay [3], the “survival of ES cell lines (MTT)” value is reported as “dose-dependent reduction”. In the assay on RD-ES tumors, the “AKT survival pathway in tumors” value is “inhibited”, the “LC3B-I abundance in tumors” value is reported as “increased abundance”, the “activation of caspase 3 in tumors” value was “no clear activation” and the “larger isoform of BIM in tumors” value is recorded as “up-regulation”. Also, in the assay on RD-ES tumors (three mice per group), the “p21 abundance in tumors” value is “increased abundance” and the “p27 abundance in tumors” value was “increased abundance”. For the same compound, the “effect of co-treatment on DEX-induced GRE activity” value in assay [4] was “inhibitory”.
